As a reminder, the pIC50 is the negative decadic logarithm of the IC50, by convention in mol/L. The term EC50 denotes the concentration needed to bring the measured effect to its halfway point. The low end stands for an effect from little substance, the high end for a need for much substance.

pIC50: −log10 of the molar value. Read-outs that look alike come from different tables or passages of the source. A value given as a limit tells only on which side of the number the result lay.

The record followed here is patent US20190375778A1, “ADENOSINE DERIVATIVES FOR USE IN THE TREATMENT OF CANCER” (NuCana plc, priority 2016, published 2019).

One series deals with FM3A. Put plainly: Cytotoxicity, FM3A. To be noted: Mus musculus, read-out: absolute IC50, FM3A. The class given is cell-based, murine. The text has this: (§1) Lovo: cell line derived from a metastatic site in a patient with colon cancer MCF7: human oestrogen sensitive mammary epithelial cell line PC3: human prostate cancer cell line A549: cancerous lung tissue derived cells L1210: lymphoblast cell line derived from a mouse with lymphocytic leukaemia FM3A: mammary carcinoma murine cells CEM: human T-lymphoblasts, derived from the blood of a patient with acute lymphoblastic leukaemia HeLa: epithelial cells from a patient with cervical adenocarcinoma

A further series concerns Lovo. As to the kind of experiment: MTT cytotoxicity assay, Lovo. The class given is cell-based. To be noted: Homo sapiens, 96 h compound exposure, read-out: absolute IC50, Lovo.
Source text: as §1
Anti-tumour evaluation in MCF7, LoVo, A549 and PC3 cell lines was performed by MTT assay. Compounds were prepared as 0.1-100 mM stock solutions dissolved in DMSO and stored at −20° C. Cells were seeded into 96-well microtitre plates at a density of 5×10^3 cells per well and allowed 24 hours to adhere. Decimal compound dilutions were prepared in medium immediately prior to each assay (final concentration 0.1-100 μM). Experimental medium was DMEM+10% FCS (PC3 and Lovo) or RPMI+10% heat inactivated FCS (A549 and MCF7). Following 96 h compound exposure at 37° C., 5% CO2, MTT reagent (Sigma Aldrich) was added to each well (final concentration 0.5 mg/ml). Incubation at 37° C. for 4 h allowed reduction of MTT by viable cells to an insoluble formazan product. MTT was removed and formazan solubilised by addition of 10% Triton X-100 in PBS. Absorbance was read on a Tecan Sunrise spectrophotometer at 540 nm as a measure of cell viability; thus inhibition relative to control was determined (IC50).
In general terms: Tetrazolium assays rely on reduction of a dye to a coloured formazan, in cell work by metabolically active cells.

A short description of series [1]: Drug stability in human plasma with or without EHNA. To be noted: for plasma concentration compared with the other compounds: human plasma, with or without EHNA. The class given is in vitro ADME. The protocol:
10 ml of human plasma sample (Sera laboratories, UK) was treated with 1 μM of EHNA. 1 ml from this was taken along with 1 μl of 20 µM concentration of each drug (8-Cl-A, compound A, compound B and compound D) which was added to new tubes and incubated for 2 hours at 37° C. with 5% CO2. After incubation, 100 μl of each sample was taken and 300 μl of 100% methanol was added and left on ice for 30 minutes. After 30 minutes, the mixture was centrifuged (14000 rpm, 4° C., 10 minutes), the supernatant was transferred to new tubes and evaporated under speed vac. Then the dried pellet was reconstituted in 100 μl of 10% Acetonitrile and transferred to LC-MS vials for injection in to the UPLC-MS/MS system.
(§2) The dose-response curves of cytotoxicity of the drugs was determined using non-linear regression analysis of percentage cell viability versus concentration and EC50 values were obtained. The intracellular assay was conducted in five repeats for each condition. Intracellular assay was determined using paired T test (two-tailed) analysis of 8-ChloroATP/ATP concentration and p values were obtained. Drug stability in human plasma was determined using two-way ANOVA analysis. For all the analysis, Prism Software program (GraphPad Software) was used.

The subject of another series is MDAMB231. As to the kind of experiment: CellTiterGlo viability assay, MDAMB231. It is filed as cell-based, Human. To be noted: for pIC50: Homo sapiens, read-out: IC50 MDAMB231. The protocol: In vitro viability assay were performed to assess the effects of compounds on cell viability in selected cell lines over ˜72 hrs using the CellTiterGlo (CTG, Promega-G7573) assay. The tests were performed in duplicates with treatment of compounds at 9 points, 3.16 folds titration in 96 well plates over ˜72 hrs. The compound starting concentrations were 198 μM. Cell viability assay using CellTiterGlo in 96-well plate were performed. Compound treatment 72 hrs, standard growth conditions, duplicates. Compounds were dissolved to 40 mM with thawed […]. Compounds were serially diluted at 3.16 fold in thawed DMSO, and warmed to 37° C. before being dissolved in media (2 μl+200 μl). After compounds were dissolved in media, media containing compounds were warmed to 37° C. in incubator and then compounds in media were added to cell plates (50 μl+50 μl) in duplicates. The compounds' final concentrations were from […] to 19.9 nM. All compound solubilities were checked and recorded again, then the plates were transferred to CO2 tissue culture incubator immediately and incubated for 3 days. DMSO final concentration is 0.5%.
For orientation: ATP-based viability assays read luminescence as a measure of living cells.

A further series relates to K-562. As to the kind of experiment: ATP ViaLight cytotoxicity assay, K-562. It is filed as cell-based. To be noted: Homo sapiens, K562, 72 h. The protocol: HL-60, CTS, and K-562 are leukaemia cell lines, which were obtained from the American Type Culture Collection (ATCC), Middlesex. HL-60 cell line is of acute promyelocytic leukaemia; CTS cell line is of acute myeloid leukaemia; and K-562 cell line is of chronic myeloid leukaemia.
HL-60, CTS, and K-562 cell lines were cultured in RPMI-1640 medium (Sigma Aldrich, UK), which was supplemented with 10% Fetal Bovine Serum (FBS) (PAA Laboratories), 1% amphotericin B (5.5 ml) and 1% penicillin/streptomycin (5.5 ml) (PAA Laboratories) and grown in flasks at 37° C. incubator with 5% CO2.
For inhibitor studies the cell lines were treated in the same way as described above but before treatment with drugs, a number of inhibitors were added: • 1) Nitrobenzylthioinosine (NBTI) (Sigma-Aldrich, St. Louis, Mo.) inhibits hENT1. • 2) A-134974 dihydrochloride hydrate (Sigma-Aldrich, St. Louis, Mo.) inhibits adenosine kinase. • 3) EHNA hydrochloride (Sigma-Aldrich, St. Louis, Mo.) inhibits adenosine deaminase.
ATP ViaLight™ plus assay kit (Lonza, USA: Product No. LT07-121) was used for treating the cells in luminescence compatible 96 well plates (initial concentration of cells was 1×10^4 cells/well) with 8-Cl-A and ProTides, concentrations: 0, 0.1, 0.5, 1, 5 and 10 μM were added to cells, respectively, followed by incubation for 72 hours at 37° C. incubator with 5% CO2. For inhibitor studies, […] concentration of each inhibitor was added before drugs and incubated for 72 hours at 37° C. with 5% CO2.
After incubation, 50 μl of cell lysis reagent was added to the 96 well plates to release the intracellular ATP, followed by 100 μl of ATP monitoring reagent (AMR). The luminescent values of each well were determined using FLUOstar OPTIMA microplate reader (BMG Labtech) which converted ATP into light by using luciferase enzyme.
as §2

Take `C[C@H](NP(=O)(OC[C@H]1O[C@@H](n2c(Cl)nc3c(N)ncnc32)[C@H](O)[C@@H]1O)Oc1ccccc1)C(=O)OCc1ccccc1` (mixture of isomers) [C, (2S)-Benzyl 2-(((((2R,3S,4R,5R)-5-(6-amino-8-chloro-9H-purin-9-yl)-3,4-dihydroxy-tetrahydrofuran-2-yl)methoxy)(phenoxy)phosphoryl)amino)propanoate]: the pIC50 with FM3A is 4.00 to 4.82; in the series with Lovo, 5.30 to 7.00.
For `Nc1ncnc2c1nc(Cl)n2[C@@H]1O[C@H](COP(=O)(NCC(=O)OC2CCCCC2)Oc2ccccc2)[C@@H](O)[C@H]1O` (mixture of isomers) [Compound A, Cyclohexyl 2-(((((2R,3S,4R,5R)-5-(6-amino-8-chloro-9H-purin-9-yl)-3,4-dihydroxy-tetrahydrofuran-2-yl)methoxy)(phenoxy)phosphoryl)amino)acetate], the pIC50 is less than 4.00 in the series with FM3A and 5.30 to 7.00 in the series on Lovo.
Take `Nc1ncnc2c1nc(Cl)n2[C@@H]1O[C@H](COP(=O)(NCC(=O)OCc2ccccc2)Oc2ccccc2)[C@@H](O)[C@H]1O` (mixture of isomers) [Compound B, Benzyl 2-(((((2R,3S,4R,5R)-5-(6-amino-8-chloro-9H-purin-9-yl)-3,4-dihydroxytetra-hydrofuran-2-yl)methoxy)(phenoxy)phosphoryl)amino)acetate]: the pIC50 is 5.30 to 7.00 in the series on FM3A; 5.30 to 7.00 in the series on Lovo; 4.82 to 5.30 in the series with MDAMB231 (MDA-MB-231, 72 h). Moreover, the “plasma concentration compared with the other compounds” value in series [1] is reported as “low plasma concentration”. In addition, the “MI% MDAMB231” value in the series on MDAMB231 (CellTiterGlo, 72 hrs) turned out to be 76%. Besides, the figures for the EC50 in the series with K-562 (Control (no inhibitor)) and in the series with K-562 (with NBTI (hENT1 inhibitor)) were 2.86 µM and 12.8 µM, respectively.
With `Nc1ncnc2c1nc(Cl)n2[C@@H]1O[C@H](CO)[C@@H](O)[C@H]1O` [8-chloroadenosine, 8-Chloroadenosine, reference compound], the pIC50 in the series on FM3A was 5.30 to 7.00; in the series with Lovo, 5.30 to 7.00; in the series with MDAMB231 (MDA-MB-231, CellTiterGlo, 72 hrs), 5.30 to 7.00. Moreover, the “fold increase in human plasma concentration when adenosine deaminase was inhibited by EHNA” value in series [1] (EHNA versus control) is approximately 3 fold. Also, the “MI% MDAMB231” value with MDAMB231 (CellTiterGlo, 72 hrs) was 74%. Besides, the figures for the EC50 with K-562 (Control (no inhibitor)) and in the series on K-562 (with NBTI (hENT1 inhibitor)) were 0.64 µM and 4.69 µM, respectively.
Take `C[C@H](NP(=O)(OC[C@H]1O[C@@H](n2c(Cl)nc3c(N)ncnc32)C(O)C1O)Oc1cccc2ccccc12)C(=O)OCc1ccccc1` (stereo partly drawn) [Compound D, (2S)-Benzyl 2-(((((2R,3S,4R,5R)-5-(6-amino-8-chloro-9H-purin-9-yl)-3,4-dihydroxy-tetrahydrofuran-2-yl)methoxynaphthalene-1-yloxy)phosphoryl)amino)propanoate]: the “plasma concentration compared with the other compounds” value in series [1] was “highest plasma concentration”. In addition, the EC50 in the series with K-562 (Control (no inhibitor)) came to 6.63 µM; with K-562 (with A-134974 (adenosine kinase inhibitor)) it was 19.7 µM; in the series with K-562 (with NBTI (hENT1 inhibitor)), 1.73 µM.
As for `CC(C)C[C@H](NP(=O)(OC[C@H]1O[C@@H](n2c(Cl)nc3c(N)ncnc32)C(O)C1O)Oc1ccccc1)C(=O)OCc1ccccc1` (stereo partly drawn) [V, 5′-([(Benzyloxy-L-leucin-N-yl)-phenyl]-phosphatyl) 8-chloroadenosine], the pIC50 in the series on FM3A is 4.00 to 4.82; in the series with Lovo it was 5.30 to 7.00; in the series on MDAMB231 (MDA-MB-231, 72 h) it was 4.00 to 4.82. In addition, in the series on MDAMB231 (CellTiterGlo, 72 hrs), the “MI% MDAMB231” value turned out to be 99%.
